Assay results reported in patent publication US12090147B2, “Combination therapy with 2-(4-chlorophenyl)-N-((2-(2,6-dioxopiperidin-3-yl)-1-oxoisoindolin-5-yl)methyl)-2,2-difluoroacetamide” (Celgene Corporation, priority 2019, dated 2024).

Experiments:
Format in all cases: cell-based, human
MV4-11 [1] = assay: Cytokine induction, electrochemiluminescence assay of culture supernatant; conditions: compounds at 1 μM, 72 hours
MV4-11 [2] = assay: Caspase 8/FLICE activity colorimetric assay; conditions: compounds at 1 μM, 24, 48 and 72 hours
Experimental: (§1) Next, tests were performed to see if caspase 8 activation alone is sufficient to mediate IL-1β induction. […] To ensure caspase 8 activity was captured at an appropriate time frame, caspase 8 activation levels at 24, 48 and 72 hours were measured (FIGS. 3C and 3D) using a caspase 8/FLICE activity colorimetric assay.

ML-2 [3] = assay: Caspase 8/FLICE activity colorimetric assay; conditions: compounds at 1 μM, 24, 48 and 72 hours
Experimental: as §1

ML-2 [4] = assay: Cytokine induction, electrochemiluminescence assay of culture supernatant; conditions: compounds at 1 μM, 72 hours
MOLM-13 = assay: as above; conditions: for Effect of second agent on Compound 1 induced IL-1β: MOLM13 (FIG. 13)
Experimental: (§2) For cytokine assays on AML cell lines, cells were seeded at 1 million per mL, 3 mL per well of 6-well plates and allowed set overnight. The next day, cells were treated with 3 μL 1000× working stock of compounds of interest.
(§3) Human AML cell lines, HL-60 (CCL-240), KG-1 (CCL-246), ML-2 (ACC-15), MOLM-13 (ACC-554), MV-4-11 (CRL-9591), NOMO-1 (ACC-542), TF-1 (CRL-2003), THP-1 (TIB-202), and U937 (CRL-1593) were obtained from American Type Culture Collection (ATCC; Manassas, VA) or Deutsche Sammlung von Mikroorganismen and Zellkulturen (DSMZ, Germany) cell banks. Acute myeloid leukemia cell lines were maintained in RPMI-1640 (ATCC Cat No. 30-2001) containing 20% fetal bovine serum (FBS) (Corning Cat No. 35-010-CV) and maintained in humidified incubators at 5% carbon dioxide.
(§4) IL-1α (Meso Scale Disgnostics, Cat No. K151RBD), IL-1β (Meso Scale Disgnostics, Cat No. K151QPD), IL-1RA (Meso Scale Disgnostics, Cat No. K151WTD), IL-18 (Meso Scale Disgnostics, Cat No. K151VJK), TNFa (Meso Scale Disgnostics, Cat No. K151QWD), VEGF Meso Scale Disgnostics, Cat No. K151RHD) levels were measured by (Meso Scale Disgnostics assay kits following manufacturer's instructions. Measurements were made on a MESO™ SECTOR S 600 plate reader (Meso Scale Disgnostics).
(§5) Cell proliferation (CTG) and caspase 3/7 activation (IncuCyte) were analyzed using GraphPad Prism. Electrochemiluminescence data was analyzed using MSD Discovery Workbench platform.
(§6) The level of intracellular pro IL-1β and released IL-1β in eight AML cell lines and normal PBMC treated with a titration of Compound 1 over a 48 hour period was assessed. (see FIGS. 1A-1C, Table 2). Supernatant IL-1βb level was induced over 5 fold in 6 out of 8 AML cell lines and normal PBMC upon Compound 1 treatment compared to DMSO (FIGS. 1A, 1B, and 1C, Table 2).

ML-2 [5] = assay: as above; conditions: for Effect of second agent on Compound 1 induced IL-1β: ML-2 (FIG. 12)
Experimental: as §2, §3, §4, §5, §6

ML-2 cells = assay: Immunoblot analysis of target proteins; conditions: 24, 48 and 72 hours, doses conferring similar caspase3/7 activation and viability loss
Experimental: Cells were washed in ice-cold 1×PBS twice before harvest in Cell Extraction Buffer (ThermoFisher Cat No. FNN0011) supplemented with 1× Halt Protease Inhibitor Cocktail (ThermoFisher Cat No. 78429). Whole cell extracts were collected after centrifugation at 14,000 g for 10 minutes, resolved on 4-12% Bis-Tris Novex Precast Gels (ThermoFisher Cat No. WG1403A), transferred onto a nitrocellulose membrane using the Turboblot Turbo Transfer System (Bio-Rad), and probed with the indicated primary antibodies. Bound antibodies were detected with IRDye-680 or -800 conjugated secondary antibodies using a LI-COR scanner.
Antibodies used for immunoblot: mouse anti-human GSPT-1 mAb conjugated with AL647 (clone number GSPT1-164-17G9-G6, Celgene, San Diego, CA), IL-1β (R&D Systems, Cat No. AF-201-NA), cleaved caspase 3 (Cell Signaling, Cat No. 9664S), alpha-tubulin (Cell Signaling, Cat No. 3873S), cleaved Caspase-8 (Cell Signaling, Cat No. 9748S), Caspase-1 (Cell Signaling, Cat No. 3866S), HA tag (Cell Signaling, Cat No. 3724), phosphor-eIF2a (Cell Signaling, Cat No. 9721), total eIF2a (Cell Signaling, Cat No. 9722), ATF4 (Cell Signaling, Cat No. 11815S), CHOP (Abcam, Cat No. 11419), GAPDH (Cell Signaling, Cat No. 5174), rabbit anti-mouse 800 antibody (LI-COR Biosciences), rabbit anti-mouse 680 antibody (LI-COR Biosciences), mouse anti-rabbit 680 antibody (LI-COR Biosciences), mouse anti-rabbit 800 antibody (LI-COR Biosciences)
as §6

MV4-11 [6] = assay: Cytokine induction, electrochemiluminescence assay of culture supernatant
Experimental: as §2, §3, §4, §5, §6

[7] = test system: eight AML cell lines and normal PBMC; assay: IL-1 family cytokine induction across the cell panel; conditions: most cell lines tested (FIG. 1B: ML-2); LPS as positive control
Experimental: as §2, §4, §6
The maturation of IL-1β can be mediated through classical caspase-1 inflammasome pathway, or a caspase-8 dependent non-canonical inflammasome signaling (Antonopoulos et al. J Biol Chem. 2015, 290(33):20167-84; Chauhan et al. Cell Rep. 2018, 25(9):2354-2368; and Schneider et al. Cell Rep. 2017, 21(13):3846-3859). To understand if classical caspase-1 mediated inflammasome pathway was activated by Compound 1, the levels of an inflammasome marker, IL-18, were tested in response to Compound 1 (FIG. 1B, Table 1), using a known inflammasome stimulant lipopolysaccharide (LPS) as positive control.

KG-1 = assay: Cytokine induction, electrochemiluminescence assay of culture supernatant
Experimental: as §2, §3, §4, §5, §6

NOMO-1 = assay: as above
Experimental: as §2, §3, §4, §5, §6

TF-1 = assay: as above
Experimental: as §2, §3, §4, §5, §6

THP-1 = assay: as above
Experimental: as §2, §3, §4, §5, §6

U937 = assay: as above
Experimental: as §2, §3, §4, §5, §6

[8] = test system: Normal Peripheral Blood Mononuclear Cells; assay: as above; conditions: PBMC
Experimental: Normal PBMCs were purchased from AllCells (Cat No. PB006F). Primary AML BMMC in were purchased from Conversant (SKU ID: BBM1000-E1110036458110215SH) or Fidelis Research (AML55, AML57, AML73, AML74, AML76, AML79, AML80, AML81, AML84, AML95). Bone marrow from health donor was purchased from StemCell Technologies (Cat No. 70001.2).
Normal PBMCs were cultured in RPMI-1640 (ATCC Cat No. 30-2001) containing 20% fetal bovine serum (Corning Cat No. 35-010-CV). Primary AML and bone marrows were cultured in Complete Medium Cytokines 1X: StemSpam™ Serum-Free Expansion Medium (StemCell Technologies Cat No. 09650) supplemented with 50 ng/mL Stem Cell Factor (Peprotech Cat No. 300-07), 50 ng/mL recombinant Human FLT3-Ligand (Peprotech Cat No. 300-19), 20 ng/mL recombinant human-interleukin-3 (Peprotech Cat No. 200-03), […] recombinant human-interleukin-6 (Peprotech Cat No. 200-06), 1 μM StemRegenin (StemCell Technologies Cat No. 72342), penicillin/streptomycin (Invitrogen Cat No. 15140122).
as §4, §5, §6

## COc1cccc2c1C(=O)c1c(O)c3c(c(O)c1C2=O)C[C@@](O)(C(C)=O)C[C@@H]3O[C@H]1C[C@H](N)[C@H](O)[C@H](C)O1 [daunorubicin, reference compound]
MV4-11 [1]
  Secreted IL-1β levels, panel of mechanistic compounds: not able to induce secreted IL-1β as efficiently as Compound 1
MV4-11 [2]
  Caspase 8 activation level: higher extent of caspase 8 activation than Compound 1
ML-2 [3]
  Caspase 8 activation level: higher extent of caspase 8 activation than Compound 1
ML-2 [4]
  Secreted IL-1β levels, panel of mechanistic compounds: not able to induce secreted IL-1β as efficiently as Compound 1

## C[C@]12C=CC(=O)C=C1CC[C@@H]1[C@@H]2[C@@H](O)C[C@@]2(C)[C@H]1CC[C@]2(O)C(=O)CO [prednisolone]
MOLM-13
  Effect of second agent on Compound 1 induced IL-1β: can be suppressed
ML-2 [5]
  Effect of second agent on Compound 1 induced IL-1β: can be suppressed

## C[C@]12C=CC(=O)C=C1CC[C@@H]1[C@@H]2C(=O)C[C@@]2(C)[C@H]1CC[C@]2(O)C(=O)CO [prednisone]
MOLM-13
  Effect of second agent on Compound 1 induced IL-1β: can be suppressed
ML-2 [5]
  Effect of second agent on Compound 1 induced IL-1β: can be suppressed

## C/C=C(/C)C(=O)O[C@H]1C(C)=C2[C@H]([C@@H]1OC(=O)CCCCCCC)[C@@](C)(OC(C)=O)C[C@H](OC(=O)CCC)[C@@]1(O)[C@H]2OC(=O)[C@@]1(C)O [thapsigargin]
ML-2 [5]; ML-2
  IL-1β induced by ER stress / unfolded protein response inducers: Low levels of IL-1β was induced
ML-2 [5]; ML-2, 24, 48 and 72 hours, doses conferring similar caspase3/7 activation and viability loss
  Secreted IL-1β in cell culture supernatant: not able to induce high levels
ML-2 cells
  Intracellular pro-IL-1β (immunoblot): not able to induce high levels

## C[C@]12C=CC(=O)C=C1CC[C@H]1[C@@H]3C[C@@H](O)[C@](O)(C(=O)CO)[C@@]3(C)C[C@H](O)[C@@]12F [triamcinolone]
MOLM-13
  Effect of second agent on Compound 1 induced IL-1β: can be suppressed
ML-2 [5]
  Effect of second agent on Compound 1 induced IL-1β: can be suppressed

## Z-YVAD
MV4-11 [6]; MV411, 1000 nM Compound 1 with 10 μM inhibitor
  Effect of caspase inhibitor on secreted IL-1β induction by Compound 1: did not suppress IL-1β induction to nearly the same extent as pan- or caspase 8 inhibitors
ML-2 [5]; ML-2, 1000 nM Compound 1 with 1, 10, 100 μM inhibitor
  Effect of caspase inhibitor on secreted IL-1β induction by Compound 1: did not suppress IL-1β induction to nearly the same extent as pan- or caspase 8 inhibitors

## lipopolysaccharide [LPS, reference compound]
[7]
  IL-18 levels (inflammasome marker): profound IL-18 induction at early time point (6 hrs)
KG-1
  IL-1β induction: 17.67
  IL-18 induction: 3.47
NOMO-1
  IL-1β induction: 3.11
  IL-18 induction: 1.77
TF-1
  IL-1β induction: 1.12
  IL-18 induction: 1.41
MOLM-13; MOLM-13
  IL-1β induction: 0.00
THP-1
  IL-1β induction: 96.62
  IL-18 induction: 12.13
U937
  IL-1β induction: 1.44
  IL-18 induction: 1.28
MV4-11 [6]; MV4-11
  IL-1β induction: 65.19
  IL-18 induction: 24.45
ML-2 [5]; ML-2
  IL-1β induction: 8.70
  IL-18 induction: 1.21
[8]
  IL-1β induction: 174.15
  IL-18 induction: 1.88
